Experimental data taken from patent US20210221832A1, “SUBSTITUTED PYRIDOINDOLES FOR THE TREATMENT AND PROPHYLAXIS OF BACTERIAL INFECTION” (Hoffmann-La Roche Inc., priority 2018, published 2021).
Values after ≈ are worked out from the molar mass of the structure shown.

Assays:
[1] = Plasma stability assay in mouse plasma; format: in vitro ADME, CD-1 mouse; conditions: 10 μM prodrug, 37° C., prodrug remaining at 30 min compared to 0 min
Experimental: (§1) The degradation of prodrug and formation of active drug of present invention were monitored by current plasma stability assay. The assay is conducted in human plasma (purchased from Bioreclamation, Lot No. BRH1380385) or mouse plasma (prepared in-house using CD-1 mouse purchased from Vital River). Plasma is spiked with the test prodrug (10 μM final concentration) dissolved in DMSO (or water) and incubated at 37° C. Aliquots are removed at 0, 5, 15 and 30 minutes of incubation time, quenched with appropriate volume of internal standard solution (I.S., 0.2 μM of tolbutamide, prepared in ACN and water (1:1, v/v)), according to the mass spectrometer intensity of both analytes. Samples are centrifuged, the supernatant are removed and analyzed by LC-MS/MS. The degradation of prodrug was illustrated by calculation of percent remaining of prodrug at 30 min compared to that at 0 min (Table 2).

[2] = Plasma stability assay in human plasma; format: in vitro ADME; conditions: 10 μM prodrug, 37° C., prodrug remaining at 30 min compared to 0 min
Experimental: as §1

[3] = Lyophilisation Solubility Assay (LYSA); format: physicochemical; conditions: aqueous buffer, thermodynamic from solid; 0.05 M phosphate buffer, pH 6.5
Experimental: The solubility of compounds of present invention was assessed by LYSA assay. Samples were prepared in duplicate from 10 mM DMSO stock solutions (20 μL) diluted in 30 μL pure DMSO. After evaporation of DMSO with a centrifugal vacuum evaporator, the residue was dissolved in 0.05 M phosphate buffer (150 μL, pH 6.5), which was stirred for one hour and shook for two hours. After one night, the solution was filtered using a microtiter filter plate. Then the filtrate and its 1/10 dilution were analyzed by HPLC-UV. In addition, a four-point calibration curve was prepared from the 10 mM stock solutions and used for the solubility determination of the compounds.

[4] = system: S. aureus (ATCC29213); assay: 50% Growth Inhibitory Concentration (IC50) Determination Assay, S. aureus; format: cell-based; conditions: Staphylococcus aureus, growth inhibition, Iso-Sensitest broth, OD 600 nm over 16 h
Experimental: (§2) The in vitro antimicrobial activity of the compounds against S. aureus (ATCC29213), K. pneumoniae (ATCC10031), and A. baumannii (ATCC17978), was determined according to the following procedure: The assay used a 10-points Iso-Sensitest broth medium to measure quantitatively the in vitro activity of the compounds against S. aureus ATCC29213, K. pneumoniae ATCC 10031, and A. baumannii ATCC 17978. Stock compounds in DMSO were serially two-fold diluted (range from 50 to 0.097 μM final concentration) in 384 wells microtiter plates and inoculated with 49 μL the bacterial suspension in Iso-Sensitest broth medium to have a final cell concentration of 5×10^5 CFU/mL in a final volume/well of 50 μL/well. Microtiter plates were incubated at 35±2° C. Bacterial cell growth was determined with the measurement of optical density at λ=600 nm each 20 minutes over a time course of 16 h. Growth inhibition was calculated during the logarithmic growth of the bacterial cells with determination of the concentration inhibiting 50% (IC50) of the growth. The parent compounds of the present invention were tested for their concentration inhibiting 50% (IC50). The data of IC50 over S. aureus (ATCC29213), K. pneumoniae (ATCC10031), and A. baumannii (ATCC17978) are illustrated in Table 6.

[5] = system: A. baumannii (ATCC17978); assay: 50% Growth Inhibitory Concentration (IC50) Determination Assay, A. baumannii; format: cell-based; conditions: Acinetobacter baumannii, growth inhibition, Iso-Sensitest broth, OD 600 nm over 16 h
Experimental: as §2

[6] = system: K. pneumoniae (ATCC10031); assay: 50% Growth Inhibitory Concentration (IC50) Determination Assay, K. pneumoniae; format: cell-based; conditions: Klebsiella pneumoniae, growth inhibition, Iso-Sensitest broth, OD 600 nm over 16 h
Experimental: as §2

CNc1cc(F)c(F)c2c1[nH]c1ncc(-c3ccc4ccc(C(=O)OC(C)OC(=O)OC(C)C)c(=O)n4c3)c(N3CC[C@H]4CN(C)C[C@H]43)c12 (stereo partly drawn) [Example 1.39, 1-Isopropoxycarbonyloxyethyl 7-[5,6-difluoro-8-(methylamino)-4-[(3aS,6aS)-5-methyl-2,3,3a,4,6,6a-hexahydropyrrolo[2,3-c]pyrrol-1-yl]-9H-pyrido[2,3-b]indol-3-yl]-4-oxo-quinolizine-3-carboxylate]
Percent Remaining (%) M [1]: 0.1% | Percent Remaining (%) H [2]: 98.4%

CN1C[C@@H]2CCN(c3c(-c4cnc5c(c4)c(=O)c(C(=O)O)cn5C)cnc4[nH]c5c(N(C)C(=O)OCOC(=O)/C=C/C(=O)O)cc(F)c(C#N)c5c34)[C@@H]2C1 [Example 1.02, 6-[5-Cyano-6-fluoro-8-[methyl-[[(E)-3-carboxyprop-2-enoyl]oxymethoxycarbonyl]amino]-4-[(3aS,6aS)-5-methyl-2,3,3a,4,6,6a-hexahydropyrrolo[2,3-c]pyrrol-1-yl]-9H-pyrido[2,3-b]indol-3-yl]-1-methyl-4-oxo-1,8-naphthyridine-3-carboxylic acid]
Percent Remaining (%) M [1]: 70.2% | Percent Remaining (%) H [2]: 88.2% | solubility [3]: > 895 µg/mL

CN1C[C@H]2CCN(c3c(-c4cnc5c(c4)c(=O)c(C(=O)O)cn5C)cnc4[nH]c5c(N(C)C(=O)OCOP(=O)(O)O)cc(F)c(F)c5c34)[C@H]2C1 [Example 1.18, 6-[5,6-Difluoro-8-[methyl(phosphonooxymethoxycarbonyl)amino]-4-[(3aR,6aR)-5-methyl-2,3,3a,4,6,6a-hexahydropyrrolo[2,3-c]pyrrol-1-yl]-9H-pyrido[2,3-b]indol-3-yl]-1-methyl-4-oxo-1,8-naphthyridine-3-carboxylic acid]
Percent Remaining (%) M [1]: 72.0% | Percent Remaining (%) H [2]: 67.2%

CNc1cc(F)c(F)c2c1[nH]c1ncc(-c3ccc4ccc(C(=O)O)c(=O)n4c3)c(N3CC[C@H]4CN(C)C[C@H]43)c12 [Example 1.34D, 7-[5,6-difluoro-8-(methylamino)-4-[(3aS,6aS)-5-methyl-2,3,3a,4,6,6a-hexahydropyrrolo[2,3-c]pyrrol-1-yl]-9H-pyrido[2,3-b]indol-3-yl]-4-oxo-quinolizine-3-carboxylic acid]
IC50 [4]: < 0.098 µM | IC50 [5]: < 0.098 µM | IC50 [6]: < 0.098 µM | solubility [3]: 54 µg/mL (≈ 99.2 µM)

CC(=O)OC(C)OC(=O)N(C)c1cc(F)c(C#N)c2c1[nH]c1ncc(-c3cnc4c(c3)c(=O)c(C(=O)O)cn4C)c(N3CC[C@H]4CN(C)C[C@H]43)c12 (stereo partly drawn) [Example 1.15, 6-[8-[1-Acetoxyethoxycarbonyl(methyl)amino]-5-cyano-6-fluoro-4-[(3aS,6aS)-5-methyl-2,3,3a,4,6,6a-hexahydropyrrolo[2,3-c]pyrrol-1-yl]-9H-pyrido[2,3-b]indol-3-yl]-1-methyl-4-oxo-1,8-naphthyridine-3-carboxylic acid]
Percent Remaining (%) M [1]: 4.7% | Percent Remaining (%) H [2]: 50.5%

CNc1cc(F)c(F)c2c1[nH]c1ncc(-c3cnc4c(c3)c(=O)c(C(=O)O)cn4C)c(N3CC[C@H]4CN(C)C[C@H]43)c12 [Example 1.26E, 6-[5,6-difluoro-8-(methylamino)-4-[(3aS,6aS)-5-methyl-2,3,3a,4,6,6a-hexahydropyrrolo[2,3-c]pyrrol-1-yl]-9H-pyrido[2,3-b]indol-3-yl]-1-methyl-4-oxo-1,8-naphthyridine-3-carboxylic acid]
IC50 [4]: < 0.098 µM | IC50 [5]: 0.039 µM | IC50 [6]: < 0.098 µM | solubility [3]: 137 µg/mL (≈ 245 µM)

CNc1cc(F)c(C#N)c2c1[nH]c1ncc(-c3cnc4c(c3)c(=O)c(C(=O)OCc3oc(=O)oc3C)cn4C)c(N3CC[C@H]4CN(C)C[C@H]43)c12 [Example 1.13, (5-Methyl-2-oxo-1,3-dioxol-4-yl)methyl 6-[5-cyano-6-fluoro-8-(methylamino)-4-[(3aS,6aS)-5-methyl-2,3,3a,4,6,6a-hexahydropyrrolo[2,3-c]pyrrol-1-yl]-9H-pyrido[2,3-b]indol-3-yl]-1-methyl-4-oxo-1,8-naphthyridine-3-carboxylate]
Percent Remaining (%) M [1]: 0.6% | Percent Remaining (%) H [2]: 1.9%

CNc1cc(F)c(C#N)c2c3c(N4CC[C@H]5CN(C)C[C@H]54)c(-c4cnc5c(c4)c(=O)c(C(=O)O)cn5C)cn(COP(=O)(O)O)c-3nc12 [Example 1.04, 6-[5-Cyano-6-fluoro-8-(methylamino)-1-(phosphonooxymethyl)-4-[(3aS,6aS)-5-methyl-2,3,3a,4,6,6a-hexahydropyrrolo[2,3-c]pyrrol-1-yl]pyrido[2,3-b]indol-3-yl]-1-methyl-4-oxo-1,8-naphthyridine-3-carboxylic acid]
Percent Remaining (%) M [1]: 79.1% | Percent Remaining (%) H [2]: 95.9% | solubility [3]: > 950 µg/mL

CNc1cc(F)c(C#N)c2c1[nH]c1ncc(-c3cnc4c(c3)c(=O)c(C(=O)OCCOC(=O)[C@@H](N)C(C)C)cn4C)c(N3CC[C@H]4CN(C)C[C@H]43)c12 [Example 1.08, 2-[(2S)-2-Amino-3-methyl-butanoyl]oxyethyl 6-[5-cyano-6-fluoro-8-(methylamino)-4-[(3aS,6aS)-5-methyl-2,3,3a,4,6,6a-hexahydropyrrolo[2,3-c]pyrrol-1-yl]-9H-pyrido[2,3-b]indol-3-yl]-1-methyl-4-oxo-1,8-naphthyridine-3-carboxylate]
Percent Remaining (%) M [1]: 1.3% | Percent Remaining (%) H [2]: 22.3% | solubility [3]: 480 µg/mL (≈ 676 µM)

CN1C[C@H]2CCN(c3c(-c4cnc5c(c4)c(=O)c(C(=O)O)cn5C)cnc4[nH]c5c(N(C)C(=O)OCOC(=O)/C=C/C(=O)O)cc(F)c(F)c5c34)[C@H]2C1 [Example 1.21, 6-[5,6-Difluoro-8-[methyl-[[(E)-3-carboxyprop-2-enoyl]oxymethoxycarbonyl]amino]-4-[(3aR,6aR)-5-methyl-2,3,3a,4,6,6a-hexahydropyrrolo[2,3-c]pyrrol-1-yl]-9H-pyrido[2,3-b]indol-3-yl]-1-methyl-4-oxo-1,8-naphthyridine-3-carboxylic acid]
Percent Remaining (%) M [1]: 56.0% | Percent Remaining (%) H [2]: 88.7%

CNc1cc(F)c(C#N)c2c1[nH]c1ncc(-c3cnc4c(c3)c(=O)c(C(=O)O)cn4C)c(N3CC[C@H]4CN(C)C[C@H]43)c12 [Example 1.03D, 6-[5-cyano-6-fluoro-8-(methylamino)-4-[(3aS,6aS)-5-methyl-2,3,3a,4,6,6a-hexahydropyrrolo[2,3-c]pyrrol-1-yl]-9H-pyrido[2,3-b]indol-3-yl]-1-methyl-4-oxo-1,8-naphthyridine-3-carboxylic acid]
IC50 [4]: < 0.098 µM | IC50 [5]: 0.045 µM | IC50 [6]: < 0.098 µM | solubility [3]: 194 µg/mL (≈ 342 µM)
